“And” between values parts separate entries of the source, which are not always exact repeats. Equal values may be shown once.
Tested on: Swiss mice, Sarcoma 180 sc, mean tumor weight T/C
Assay: NCI In Vivo Anticancer Drug Screen. Data for tumor model Sarcoma 180 (subcutaneous) in Swiss mice
Conditions: endpoint: mean tumor weight, higher = larger tumour
Summary of the method: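 Mice bearing transplanted tumors were treated with compound, and survival or tumor size was measured. Values are expressed as the treated-group measurement (T) divided by the vehicle-treated control measurement (C).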

[1] = dose: 4.0 mg/kg/injection, schedule: Q01DX007 (ip), vehicle: carboxymethylcellulose (CMC)
[2] = dose: 8.0 mg/kg/injection, schedule: Q01DX007 (ip), vehicle: carboxymethylcellulose (CMC)
[3] = dose: 32.0 mg/kg/injection, schedule: Q01DX007 (ip), vehicle: carboxymethylcellulose (CMC)
[4] = dose: 62.0 mg/kg/injection, schedule: Q01DX007 (ip), vehicle: carboxymethylcellulose (CMC)
[5] = dose: 125.0 mg/kg/injection, schedule: Q01DX007 (ip), vehicle: carboxymethylcellulose (CMC)
[6] = dose: 500.0 mg/kg/injection, schedule: Q01DX007 (ip), vehicle: carboxymethylcellulose (CMC)

**Q.** `CCOC(=O)NP(=O)(N1CC1)N1CC1` was tested. Which T/C (dose: 937.0 micrograms/kg/injection, schedule: Q01DX007 (ip), vehicle: carboxymethylcellulose (CMC)) did it give?
**A.** 113 % of control

**Q.** What about the T/C (dose: 1875.0 micrograms/kg/injection, schedule: Q01DX007 (ip), vehicle: carboxymethylcellulose (CMC)) of the same compound?
**A.** 100 % of control

**Q.** What about the T/C (dose: 7500.0 micrograms/kg/injection, schedule: Q01DX007 (ip), vehicle: carboxymethylcellulose (CMC)) of the same compound?
**A.** 74 % of control

**Q.** Which T/C [1] does the source give for `CCCCNc1ncnc2c1cnn2C` here?
**A.** 124 % of control

**Q.** What about the T/C [2] of the same compound?
**A.** 107 % of control and 121 % of control

**Q.** And the T/C (dose: 31.0 mg/kg/injection, schedule: Q01DX007 (ip), vehicle: carboxymethylcellulose (CMC))?
**A.** 92 % of control

**Q.** And the T/C [3]?
**A.** 77 % of control

**Q.** What about the T/C [4] of the same compound?
**A.** 112 % of control

**Q.** Which T/C (dose: 0.5 mg/kg/injection, schedule: Q01DX007 (ip), vehicle: saline) does the source give for `COC(=O)C1C2CC3c4[nH]c5cc(OC)ccc5c4CCN3CC2CC(OC(=O)c2cc(OC)c(OC)c(OC)c2)C1OC` (stereo not given) here?
**A.** 155 % of control

**Q.** And the T/C (dose: 1.0 mg/kg/injection, schedule: Q01DX007 (ip), vehicle: saline)?
**A.** 85 % of control

**Q.** And the T/C (dose: 2.0 mg/kg/injection, schedule: Q01DX007 (ip), vehicle: saline)?
**A.** 62 % of control

**Q.** And the T/C (dose: 4.0 mg/kg/injection, schedule: Q01DX007 (ip), vehicle: saline)?
**A.** 83 % of control and 85 % of control

**Q.** What about the T/C (dose: 8.0 mg/kg/injection, schedule: Q01DX007 (ip), vehicle: saline) of the same compound?
**A.** 115 % of control

**Q.** What about the T/C (dose: 16.0 mg/kg/injection, schedule: Q01DX007 (ip), vehicle: saline) of the same compound?
**A.** 92 % of control

**Q.** What about the T/C (dose: 32.0 mg/kg/injection, schedule: Q01DX007 (ip), vehicle: saline) of the same compound?
**A.** 90 % of control

**Q.** What does the source list for `CC(=O)N(C)C`?
**A.** T/C [4]: 100 % of control; T/C [5]: 95 % of control; T/C [6]: 65 % of control; T/C (dose: 750.0 mg/kg/injection, schedule: Q01DX007 (ip), vehicle: saline): 104 % of control; T/C (dose: 1000.0 mg/kg/injection, schedule: Q01DX007 (ip), vehicle: saline): 70 % of control

**Q.** `O=C(O)C(=O)c1ccc(-c2ccccc2)cc1` was tested. Which T/C [1] did it give?
**A.** 83 % of control

**Q.** And the T/C [2]?
**A.** 106 % of control

**Q.** And the T/C (dose: 16.0 mg/kg/injection, schedule: Q01DX007 (ip), vehicle: carboxymethylcellulose (CMC))?
**A.** 71 % of control

**Q.** And the T/C [3]?
**A.** 80 % of control

**Q.** `CCCCCCCCCCCCNCCCCCCCCCCCC` was tested. Which T/C (dose: 2.5 mg/kg/injection, schedule: Q01DX007 (ip), vehicle: water) did it give?
**A.** 107 % of control

**Q.** And the T/C (dose: 5.0 mg/kg/injection, schedule: Q01DX007 (ip), vehicle: water)?
**A.** 54 % of control

**Q.** What about the T/C (dose: 7.5 mg/kg/injection, schedule: Q01DX007 (ip), vehicle: water) of the same compound?
**A.** 60 % of control

**Q.** What about the T/C (dose: 10.0 mg/kg/injection, schedule: Q01DX007 (ip), vehicle: water) of the same compound?
**A.** 44 % of control

**Q.** How did the T/C (dose: 7.0 mg/kg/injection, schedule: Q#A X014 (ip), vehicle: saline) turn out when `CCCCNP(=O)(N1CC1C)N1CC1C` (stereo not given) was run?
**A.** 64 % of control

**Q.** And the T/C (dose: 10.5 mg/kg/injection, schedule: Q#A X014 (ip), vehicle: saline)?
**A.** 62 % of control

**Q.** What about the T/C (dose: 15.5 mg/kg/injection, schedule: Q#A X014 (ip), vehicle: saline) of the same compound?
**A.** 50 % of control

**Q.** And the T/C (dose: 23.5 mg/kg/injection, schedule: Q#A X014 (ip), vehicle: saline)?
**A.** 39 % of control

**Q.** `COC(=O)c1ccccc1NC(c1ccccn1)c1ccc2cccnc2c1O` (stereo not given) was tested. Which T/C [4] did it give?
**A.** 115 % of control

**Q.** And the T/C [5]?
**A.** 104 % of control

**Q.** And the T/C (dose: 250.0 mg/kg/injection, schedule: Q01DX007 (ip), vehicle: carboxymethylcellulose (CMC))?
**A.** 88 % of control

**Q.** And the T/C [6]?
**A.** 88 % of control

**Q.** What does the source list for `[N-]=[N+]=CC(=O)NCC(=O)NN`?
**A.** T/C (dose: 400.0 mg/kg/injection, schedule: Q01DX007 (ip), vehicle: water): 45 % of control; T/C (dose: 450.0 mg/kg/injection, schedule: Q01DX007 (ip), vehicle: other): 43 % of control; T/C (dose: 500.0 mg/kg/injection, schedule: Q01DX007 (ip), vehicle: other): 50 % of control; T/C (dose: 600.0 mg/kg/injection, schedule: Q01DX007 (ip), vehicle: water): 34 % of control

Reference: PubChem BioAssay AID342 (DTP/NCI, 2004)
